EPA's ToxRefDB 2

Key:
[1] = test system: rat; settings: Subchronic oral toxicity in rodents, fischer, Feed, dose end: 13 week, group: systemic
[2] = test system: dog; settings: Subchronic oral toxicity in nonrodent, beagle, Capsule, dose end: 13 week, group: systemic
[3] = test system: rabbit; settings: Prenatal developmental toxicity study; new zealand white; Oral; Gavage/Intubation; dose end: 19 GD; group: maternal; systemic / in life observation / body weight / body weight gain + systemic / in life observation / clinical signs / altered breathing rate…
[4] = test system: rat; settings: Multigenerational reproductive toxicity study, sprague dawley, Oral, Feed, dose end: 2 generation; for LEL / NEL: systemic / organ weight / liver / relative to body weight
[5] = test system: mouse; settings: Carcinogenicity, cd1, Oral, Feed, dose end: 80 week, group: systemic
[6] = test system: rat; settings: Combined chronic toxicity/carcinogenicity, fischer, Oral, Feed, dose end: 104 week, group: systemic
[7] = test system: rat; settings: Prenatal developmental toxicity study, sprague dawley, Oral, Gavage/Intubation, dose end: 15 GD
[8] = test system: dog; settings: Chronic toxicity; beagle; Oral; Capsule; dose end: 52 week; group: systemic; systemic / hematology / mean corpuscular hemoglobin (mch) / mean corpuscular hemoglobin (mch) + systemic / hematology / mean corpuscular …
[9] = systemic / clinical chemistry / cholesterol / cholesterol + systemic / hematology / hematocrit (hct) / hematocrit (hct) + systemic / …
[10] = systemic / hematology / hematocrit (hct) / hematocrit (hct)
[11] = systemic / clinical chemistry / glucose / glucose + systemic / clinical chemistry / alanine aminotransferase (alt/sgpt) / alanine …
[12] = group: parental, systemic / in life observation / body weight / body weight gain + systemic / organ weight / liver / relative to body weight + systemic / …
[13] = systemic / clinical chemistry / protein / protein
[14] = group: developmental, developmental / developmental malformation / bone / full supernumerary
[15] = group: developmental, developmental / developmental malformation / bone / full supernumerary + developmental / developmental malformation / bone / incomplete …
[16] = group: maternal, systemic / organ weight / placenta / nos
[17] = group: maternal, systemic / organ weight / placenta / nos + systemic / in life observation / body weight / body weight + systemic / in life observation / …

With `Clc1ccc(C2(Cn3cncn3)CC(Br)CO2)c(Cl)c1` (centres undefined) [Bromuconazole] the LOAEL [1, 9] was 68.1 mg/kg/day, the NOAEL [1, 9] was 13.8 mg/kg/day and the LEL [1, 10] was 2.72 mg/kg/day. The NEL [1, 10] was < 2.72 mg/kg/day, the LOAEL ([2]; systemic / clinical chemistry / glucose / glucose) was 25 mg/kg/day and the NEL [2, 11] was 2.5 mg/kg/day. For the same compound, the NOAEL [2, 11] was 2.5 mg/kg/day, the LEL ([2]; systemic / clinical chemistry / glucose / glucose + systemic / organ weight / liver / relative to body weight) was 25 mg/kg/day and the LEL [3] was 50 mg/kg/day. For the same compound, the LOAEL [3] was 50 mg/kg/day, the NEL [3] was 12.5 mg/kg/day and the NOAEL [3] was 12.5 mg/kg/day. It also gave an LOAEL ([4]; group: offspring, systemic / in life observation / body weight / offspring (pup) weight gain) of 141 mg/kg/day, an NOAEL ([4]; group: offspring, systemic / in life observation / body weight / offspring (pup) weight gain + developmental / offspring survival late / viability index / …) of 13.8 mg/kg/day and an LEL ([4]; group: offspring) of 1.6 mg/kg/day. For the same compound, the NEL ([4]; group: offspring) was < 1.6 mg/kg/day, the LOAEL [4, 12] was 141 mg/kg/day and the NOAEL [4, 12] was 13.8 mg/kg/day. The LEL ([4]; group: parental) was 1.3 mg/kg/day, the NEL ([4]; group: parental) was < 1.3 mg/kg/day and the LOAEL ([5]; systemic / in life observation / body weight / body weight gain) was 113 mg/kg/day. It also gave an NOAEL ([5]; systemic / in life observation / body weight / body weight gain + systemic / pathology microscopic / liver / adenoma + systemic / organ …) of 10.8 mg/kg/day, an NEL ([5]; systemic / organ weight / liver / absolute + systemic / organ weight / liver / relative to body weight + systemic / organ weight / adrenal …) of 370 mg/kg/day and an LEL [6, 13] of 0.88 mg/kg/day. The NEL [6, 13] was < 0.88 mg/kg/day, the LOAEL ([6]; systemic / pathology microscopic / liver / vacuolization) was 8.27 mg/kg/day and the NOAEL ([6]; systemic / pathology microscopic / liver / vacuolization + systemic / in life observation / body weight / body weight + systemic / in life …) was 1.09 mg/kg/day. It also gave an LEL [7, 14] of 70 mg/kg/day, an LOAEL [7, 14] of 70 mg/kg/day and an NEL [7, 15] of 10 mg/kg/day. For the same compound, the NOAEL [7, 15] was 10 mg/kg/day, the LEL [7, 16] was 70 mg/kg/day and the LOAEL [7, 16] was 70 mg/kg/day. For the same compound, the NEL [7, 17] was 10 mg/kg/day, the NOAEL [7, 17] was 10 mg/kg/day and the LEL [8] was 25 mg/kg/day. The LOAEL [8] was 25 mg/kg/day, the NEL [8] was 2.5 mg/kg/day and the NOAEL [8] was 2.5 mg/kg/day.
